# Patent publication US10093627B2, “Tetrahydroquinoline derivatives and their use as Epac inhibitors” (Institut National de la Sante et de la Recherche Medicale …, priority 2012, dated 2018)
# Legend:
# [1] = target: T1, Epac1 (Homo sapiens, UniProt O95398); assay: Epac1 nucleotide exchange activity, multipoint (time-course) method, bGDP-loaded GST-Rap1A; type: biochemical; details: 20 μM CE3F4, single dose; 2 μM compound 007; FIG. 1
# T1 construct: Recombinant human Epac1 (residues 149-881), deleted of its Dishevelled, Egl-10, and Pleckstrin (DEP) domain; made in house
# T1 sequence (O95398 149-881 isoform O95398-3): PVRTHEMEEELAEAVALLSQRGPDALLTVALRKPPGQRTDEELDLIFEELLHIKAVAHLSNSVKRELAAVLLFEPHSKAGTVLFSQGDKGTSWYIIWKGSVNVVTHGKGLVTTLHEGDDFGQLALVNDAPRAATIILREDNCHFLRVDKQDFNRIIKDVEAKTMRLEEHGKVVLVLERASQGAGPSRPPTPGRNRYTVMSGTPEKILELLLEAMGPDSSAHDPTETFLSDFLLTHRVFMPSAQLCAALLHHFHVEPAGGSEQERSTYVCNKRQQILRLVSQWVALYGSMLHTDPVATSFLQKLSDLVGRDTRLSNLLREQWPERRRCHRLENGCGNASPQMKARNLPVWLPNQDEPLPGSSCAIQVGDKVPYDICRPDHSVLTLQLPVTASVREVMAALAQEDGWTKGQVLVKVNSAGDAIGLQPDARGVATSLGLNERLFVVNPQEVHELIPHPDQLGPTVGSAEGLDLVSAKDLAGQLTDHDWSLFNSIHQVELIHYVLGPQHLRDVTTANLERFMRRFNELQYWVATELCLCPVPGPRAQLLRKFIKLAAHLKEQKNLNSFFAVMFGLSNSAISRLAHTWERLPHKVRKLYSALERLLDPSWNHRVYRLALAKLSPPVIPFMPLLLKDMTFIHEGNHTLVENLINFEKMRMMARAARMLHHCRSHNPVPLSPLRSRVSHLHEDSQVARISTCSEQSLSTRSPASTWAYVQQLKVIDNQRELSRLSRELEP
# Experimental: Epac1 nucleotide exchange activity was measured: • in the absence of compound 007, • or in the presence of 2 μM of compound 007, either alone or with 25 μM of compound 009, • or with 20 μM of CE3F4.
# Variations of RFU (Relative Fluorescence Units) were studied as a function of time and fitted to single exponentials. Reported values are mean±SEM (n=3). (see Materiel and Methods).
# Concerning FIG. 1, a “multipoint” (time-course) method was used. All components except the agonist (007) were mixed in a well and the exchange activity of Epac1 was initiated by injection of the agonist. GST-Rapt was preloaded with a fluorescent derivative of GDP, and the Epac1-catalyzed nucleotide exchange was measured using a large excess of non-fluorescent GDP, by taking advantage of the spectroscopic difference between free and Rap1-bound fluorescently labeled GDP. The principle of the method is similar to that reported in particular by Van den Berghe et al. (1997; Oncogene 15, 845), except that Bodipy FL-labeled GDP (bGDP) was used here, rather than 2′,3′-bis(O)—N-methylanthraniloyl-GDP (mant-GDP). […]
# [2] = test system: Epac1-induced H-Ras activation in HEK293 cells; assay: Epac1-induced H-Ras activation, H-Ras-GTP pull-down in HEK293 cells; type: cell-based
# Experimental: The effects of CE3F4 to prevent Epac1-induced H-Ras activation was determined by extraction of GTP-loaded H-Ras from cell lysates with the immobilized Ras-binding domain of Raf1.
# HEK293 cells (FIG. 3A) or rat neonatal cardiac myocytes (FIG. 3B) were transfected with Epac1. 24 h after transfection, cells were preincubated or not with CE3F4 for 30 min and were then treated or not with Sp-007 (10 μM) for 10 min. In FIG. 3C, HEK293 cells overexpressing β1-AR and transfected with Epac1 were pretreated or not with 20 μM of CE3F4 for 30 min and stimulated or not with Iso for 10 min. Amounts of H-Ras-GTP were determined by pull-down assays. The bar graph represents the mean±S.E.M. of 5 (FIG. 3A) or 2 (FIG. 3B, 3C) independent experiments. Results are expressed as the percentage of unstimulated control cells.
# Ras and Rap1 pull-down experiments were performed using a GST fusion protein containing respectively the Ras binding domain of Raf1-RBD and the Rap1 binding domain of Ral-GDS as previously described (Métrich et al., 2008). Cells were starved for 1 h before stimulation in MEM free with penicillin-streptomycin (1%). […]
structure (smiles),measurement,setting,value
CC1CCc2c(cc(Br)c(F)c2Br)N1C=O (racemic) [CE3F4],Inhibition of the exchange reaction induced by Epac1 plus 007,[1],inhibited the exchange reaction
same,Amount of Ras-GTP induced by Iso,"[2]; HEK293 overexpressing β1-AR, transfected with Epac1, CE3F4 20 μM, 30 min, Iso 10 min, FIG. 3C",decreased
same,Amount of Ras-GTP induced by Sp-007,"[2]; HEK293 transfected with Epac1, CE3F4 30 min, Sp-007 10 μM, 10 min, FIG. 3A",decreased
